Columns and labels:
human PPARγ1 = target: T1, human PPARγ1 (Homo sapiens, UniProt P37231); experiment: Measurement of human PPARγ1 binding activity ([3H]-compound A displacement); settings: cell extract with 1.5 μg/ml full length hPPARγ1, 20 nM [3H]-compound A, 4° C., 16 hrs
T1 construct: made in house; host or cells: COS-1 cells transiently transfected with pMCMVneo-hPPARγ; crude supernatant of the lysate, not purified
T1 sequence (P37231 1-477 isoform P37231-2): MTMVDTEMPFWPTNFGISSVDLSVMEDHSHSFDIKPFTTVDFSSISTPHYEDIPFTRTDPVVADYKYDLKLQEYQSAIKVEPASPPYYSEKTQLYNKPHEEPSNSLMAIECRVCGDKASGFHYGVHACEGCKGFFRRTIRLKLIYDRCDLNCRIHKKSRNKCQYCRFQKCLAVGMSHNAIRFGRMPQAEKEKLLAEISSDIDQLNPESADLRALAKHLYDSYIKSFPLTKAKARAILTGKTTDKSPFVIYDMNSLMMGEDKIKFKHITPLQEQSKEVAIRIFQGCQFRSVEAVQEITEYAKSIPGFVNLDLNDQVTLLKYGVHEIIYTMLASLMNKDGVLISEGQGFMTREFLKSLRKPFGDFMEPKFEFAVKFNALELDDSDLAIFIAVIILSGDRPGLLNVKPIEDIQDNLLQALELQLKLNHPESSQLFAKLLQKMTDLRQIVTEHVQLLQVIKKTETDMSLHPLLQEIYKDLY
Procedure: A cell extract containing 1.5 μg/ml of full length hPPARγ1 prepared in Reference Example 7a, 20 nM [^3H]-compound A (16 Ci/mmol)(Amersham Pharmacia Biotech) and a test compound were reacted in TEGM buffer at 4° C. for 16 hrs. To the reaction mixture was added activated carbon (Sigma) coated with 140 μl of dextran (Amersham Pharmacia Biotech) and gelatin (Sigma), and the mixture was left standing at 4° C. for 10 min and centrifuged at 910×g for 10 min. After centrifugation, the radioactivity of 30 μl of supernatant was measured with Topcount (Packard). In addition, a test similar to the above was conducted for the non-use of the aforementioned test compound and for the use of 100 μM of compound A instead of the aforementioned test compound, and the radioactivity was determined.
The human PPARγ1 binding activity of the test compound was evaluated using percentages wherein the measured value of the radioactivity when 20 nM [^3H]-compound A alone was added was 100%, and the measured value of the radioactivity when 20 nM [^3H]-compound A and 100 μM of compound A were simultaneously added was 0%. Moreover, the IC50 value of the test compound was calculated based on the analysis of the compound concentration and the percentage using PRISM3.0 (Graph Pad, Inc.).
COS-1 cells were seeded in a 150 cm^2 tissue culture flask (Corning Inc.) at 5×10^6 cells, and cultured under 37° C. 5% CO2 conditions for 24 hrs. Transfection was performed using lipofectamine (GIBCO BRL). To be specific, 125 μl of lipofectamine, 100 μl of PLUS Reagent and 15 μg of hPPARγ expression plasmid (plasmid pMCMVneo-hPPARγ obtained in Reference Example 6a) were mixed with opti-MEM (GIBCO BRL) to give a transfection mixture. The transfection mixture (25 ml) was added to COS-1 cells and the cells were cultured under 37° C. 5% CO2 conditions for 3 hrs. Then 25 ml of DMEM medium (Nikken Biomedical Laboratory) containing 10% FCS treated with activated carbon (Sigma) was added to the cells and the cells were cultured under 37° C. 5% CO2 conditions. After 24 hrs., the medium was substituted with 50 ml of DMEM medium (Nikken Biomedical Laboratory) containing 5% FCS treated with activated carbon, and the cells were cultured under 37° C., 5% CO2 conditions. After 48 hrs, the transfected cells were recovered and washed with TEG buffer (10 mM Tris-HCl (pH 7.2), 50 mM EDTA, 10% glycerol). The cells were suspended in 1 ml TEGM buffer (10 mM Tris-HCl (pH 7.2), 1 mM EDTA, 10% glycerol, 7 μl/100 ml β-mercaptoethanol, 10 mM Na molybdate, 1 mM dithiothreitol, 2 tablets/100 ml Protease inhibitor Cocktail tablets (Boehringer Mannheim)) and, for cell lysis, frozen with liquid nitrogen and thawed on ice. To remove the debris of the cells, the extract was centrifuged at 228,000×g, 4° C. for 20 min. and the supernatant was preserved at −80° C. until use.

| SMILES | IC50 (human PPARγ1) [nM] | melting point [°C] |
| --- | --- | --- |
| COc1cc(COc2nn(-c3ccccc3)cc2/C=C/P(=O)(OC(C)C)OC(C)C)ccc1OCc1nc(-c2ccco2)oc1C [Example 145, diisopropyl (E)-2-{3-[(4-{[2-(2-furyl)-5-methyl-1,3-oxazol-4-yl]methoxy}-3-methoxybenzyl)oxy]-1-phenyl-1H-pyrazol-4-yl}ethenylphosphonate] | 80 | 152 to 153 |
| CCOC(=O)/C=C/c1cn(-c2ccccc2)nc1OCc1ccc(OCc2nc(-c3ccccc3)oc2C)c(OC)c1 [Example 284, ethyl (E)-3-(3-{[3-methoxy-4-(5-methyl-2-phenyl-1,3-oxazol-4-ylmethoxy)benzyl]oxy}-1-phenyl-1H-pyrazol-4-yl)-2-propenoate] | 75 | 194 to 195 |
| COc1cc(COc2nn(-c3ccccc3)cc2/C=C/c2csc(C)n2)ccc1OCc1nc(-c2ccco2)oc1C [Example 150 (E form), 2-(2-furyl)-4-({2-methoxy-4-[({4-[(E)-2-(2-methyl-1,3-thiazol-4-yl)ethenyl]-1-phenyl-1H-pyrazol-3-yl}oxy)methyl]phenoxy}methyl)-5-methyl-1,3-oxazole] | 50 | 111 to 112 |
| CCn1cnc(/C=C/c2cn(-c3ccccc3)nc2OCc2ccc(OCc3nc(-c4ccc(CC(=O)O)cc4)oc3C)c(OC)c2)c1 [Example 344, (4-{4-[(4-[({4-[(E)-2-(1-ethyl-1H-imidazol-4-yl)ethenyl]-1-phenyl-1H-pyrazol-3-yl}oxy)methyl]-2-methoxyphenoxy)methyl]-5-methyl-1,3-oxazol-2-yl}phenyl)acetic acid] | 46 | 194 to 196 |
| CCOP(=O)(/C=C/c1cn(-c2ccccc2)nc1OCc1ccc(OCc2nc(/C=C/C(=O)O)oc2C)c(OC)c1)OCC [Example 315, (2E)-3-[4-({4-[({4-[(E)-2-(diethoxyphosphoryl)ethenyl]-1-phenyl-1H-pyrazol-3-yl}oxy)methyl]-2-methoxyphenoxy}methyl)-5-methyl-1,3-oxazol-2-yl]-2-propenoic acid] | 500 | 89 to 90 |
| CCOP(=O)(/C=C/c1cn(-c2ccccc2)nc1OCc1ccc(OCc2nc(-c3cccc(C(N)=O)c3)oc2C)c(OC)c1)OCC [Example 239, diethyl (E)-2-(3-{[4-({2-[3-(carbamoyl)phenyl]-5-methyl-1,3-oxazol-4-yl}methoxy)-3-methoxybenzyl]oxy}-1-phenyl-1H-pyrazol-4-yl)ethenylphosphonate] | 61 | 127 to 128 |
| CCc1nc(/C=C/c2cn(-c3ccccc3)nc2OCc2ccc(OCc3nc(-c4cccc(C(=O)O)c4)oc3C)c(OC)c2)co1 [Example 307] | 7.4 | 169 to 171 |
| CCOP(=O)(/C=C/c1cn(-c2ccccc2)nc1OCc1ccc(OCc2nc(-c3cccc(C(=O)OC)c3)oc2C)c(OC)c1)OCC [Example 211, methyl 3-[4-({4-[({4-[(E)-2-(diethoxyphosphoryl)ethenyl]-1-phenyl-1H-pyrazol-3-yl}oxy)methyl]-2-methoxyphenoxy}methyl)-5-methyl-1,3-oxazol-2-yl]benzoate] | 27 | 141 to 142 |
| CCOP(=O)(/C=C/c1cn(-c2ccccc2)nc1OCc1ccc(OCc2csc(N3CCOCC3)n2)c(OC)c1)OCC [Example 191, diethyl (E)-2-{3-[(3-methoxy-4-{[2-(morpholin-4-yl)-1,3-thiazol-4-yl]methoxy}benzyl)oxy]-1-phenyl-1H-pyrazol-4-yl}ethenylphosphonate] | 810 | 93 to 94 |
| CCc1nc(/C=C/c2cn(-c3ccccc3)nc2OCc2ccc(OCc3nc(-c4cccc(C(=O)O)c4)oc3C)c(OC)c2)cs1 [Example 224, 3-[4-({4-[({4-[(E)-2-(2-ethyl-1,3-thiazol-4-yl)ethenyl]-1-phenyl-1H-pyrazol-3-yl}oxy)methyl]-2-methoxyphenoxy}methyl)-5-methyl-1,3-oxazol-2-yl]benzoic acid] | 3.6 | 190 to 191 |
| CCOP(=O)(/C=C/c1cn(-c2ccccc2)nc1OCc1ccc(OCc2nc(-c3ccccc3)oc2C)c(OC)c1)OCC [Example 146, diethyl (E)-2-[3-({3-methoxy-4-[(5-methyl-2-phenyl-1,3-oxazol-4-yl)methoxy]benzyl}oxy)-1-phenyl-1H-pyrazol-4-yl]ethenylphosphonate] | 68 | 92 to 93 |

From patent US7368578B2, “Five-membered heterocyclic compounds” (Takeda Pharmaceutical Company Limited, priority 2002, dated 2008)
